The results in this text go back to US20250057808A1, “COMPOSITION COMPRISING BETA LACTAM FOR TREATING ALCOHOL DEPENDENCE AND ALCOHOL ASSOCIATED DISEASES OR CONDITIONS” (Temple University of the Commonwealth System of Higher …, priority 2023, published 2025).

“Also recorded” adds a separate entry of the source.

The subject of one data set is PPAR-γ. In words: Western blot PPAR-γ expression in liver. Format: in vivo, P rats. The note with it: MC-100093 50 mg/kg or ceftriaxone 200 mg/kg i.p. 5 days; between all groups. As to the method:
Western Blot assay was performed to measure changes in the expression of GLT-1, xCT, mGluR1, mGluR5, PPAR-α, PPARγ, GAPDH and β-tubulin in the NAc-core and NAc-shell as described in previous publications. A lysis buffer containing protease and phosphatase inhibitors was used to generate a homogenate of liver, Nac-core, and Nac-shell samples. The amount of protein was quantified using a detergent compatible protein assay (Bio-Rad, Hercules, CA, USA) for each sample. Samples were mixed with laemmli dye and loaded with equal amounts on polyacrylamide gels (10%), which separated the proteins using electrophoresis. After that, polyvinylidene difluoride (PVDF) membranes were used to transfer the proteins electrophoretically from the gels. Membranes were incubated in 5% free-fat milk in Tris-buffered saline with Tween-20 (TBST) for 30-60 minutes at room temperature. Membranes were then incubated with appropriate primary antibodies overnight at 4° C.: rabbit anti-GLT-1 (1:5000, Abcam, ab41621), rabbit anti-xCT (1:2000, Abcam, ab175186), rabbit anti-mGluR1 (1:1000, Abcam, ab82211), rabbit anti-mGluR5 (1:1000, Abcam, ab76316), rabbit anti-PPAR-α (1:1000, Abcam, ab24509), and rabbit anti-PPARγ (1:1000, Abcam, ab209350). […]
(In general: In western blotting, separated proteins are transferred to a membrane and probed.)

A short description of data set [1]: Ethanol intake, preference, water intake and body weight in male and female P rats (section B). The conditions noted are these: for Body weight / Ethanol consumption: 100 mg/kg; for Ethanol consumption / Ethanol preference / Water consumption: vs ethanol-saline group; for Ethanol preference / Water consumption: 100 mg/kg i.p.; for Ethanol preference: Day 1 through Day 5. Format: in vivo, Male and female alcohol-preferring (P) rats. As for the experimental part:
Male and female alcohol-preferring (P) rats were acquired from Indiana University School of Medicine, Indianapolis, IN at the age of 80-85 days. All animals were single housed in a room with temperature at 22° C. and 50% humidity in a 12 h light/dark cycle. Rats had free access to food and water throughout the experimental procedures. All the experimental procedures were approved by the University of Toledo Institutional Animal Care and Use Committee (IACUC) under IACUC protocol #400160.
At the age of 90-100 days, 5-7 male and female rats were assigned randomly to three groups: (1) Water-drinking (Water-Saline) group with no access to ethanol and served as a control group; (2) Ethanol-Saline group, which was exposed to continuous free-choice access to ethanol (15% and 30%, v/v, concurrently), and water for five weeks, and saline i.p. injections were performed from Days 1-5 on Week 6; and (3) Ethanol-MC-100093 group, which had continuous free-choice access to ethanol (15% and 30%, v/v), and water for five weeks, and MC-100093 i.p. injections were performed from Days 1-5 on Week 6. Ethanol and water intake were measured as g/kg/day. Rats were required to meet the criterion of an average ethanol consumption of 4 g/kg/day to be included in the study, for at least 2 weeks before saline vehicle or MC-100093 i.p. injections, as adopted in previous studies. Average ethanol and water consumptions throughout Week 5 served as a baseline. At Week 6 of the experiment, ethanol-MC-100093 group received MC-100093 at a dose of 100 mg/kg (i.p.) once daily for five days, and ethanol-saline and water-saline groups received saline vehicle as an i.p injection for five consecutive days. Water and ethanol were measured daily 24 hours after the first i.p. injections of saline or MC-100093 and 24 hours after the last i.p. injections of saline or MC-100093.
All statistical analyses were conducted using GraphPad Prism (10). Two-way (mixed) ANOVA followed by Bonferroni multiple comparison post-hoc test was performed to analyze daily ethanol intake, average daily water intake and body weight. One-way ANOVA followed by Newman-Keuls post hoc tests were used to analyze Western blot data. All statistical analyses data were reported as a p<0.05 of significance.
Ethanol preference was calculated as total ethanol consumption/total fluid consumption×100 from daily alcohol and water consumption.

The mark [2] stands for this setting: female P rats, 100 mg/kg i.p. 5 days.
The mark [3] stands for this setting: male P rats, 100 mg/kg i.p. 5 days.

On to `C[C@@H](O)[C@H]1C(=O)N[C@@H]1[C@@H](C)C(=O)N1CCN(C)CC1` [MC-100093], for which, in the data set with PPAR-γ, the “Protein expression of PPAR-γ in the liver” value is listed as “not changed significantly”. The “Attenuation effect on ethanol consumption, male compared with female P rats” value in data set [1] (100 mg/kg i.p. 5 days) is listed as “higher attenuation effect on ethanol consumption in male P rats exceeding female P rats”. Further, in data set [1] (setting [2]), the Body weight result is recorded as “no significant effect on body weights; also recorded: no effect on the body weight”; the Ethanol consumption entry is “reduced ethanol consumption in both male and female P rats from Day 1-5; also recorded: significant decrease in ethanol consumption from Day 1 through Day 5; also recorded: decreased ethanol consumption in male and female P rats”. In addition, in data set [1] (female P rats), the Ethanol preference result is given as “significant decrease in percent ethanol preference” and the Water consumption entry was “significant increase in water consumption from Day 1 through Day 5”. Besides, in data set [1] (setting [3]), the Body weight result is “no significant effect on body weights; also recorded: no effect on the body weight”; the Ethanol consumption entry was “reduced ethanol consumption in both male and female P rats from Day 1-5; also recorded: significant decrease in ethanol consumption from Day 1 through Day 5; also recorded: decreased ethanol consumption in male and female P rats”. Moreover, in data set [1] (male P rats), the Ethanol preference result was “significant decrease in percent ethanol preference” and the Water consumption entry is given as “significant increase in water consumption from treatment Day 1 through Day 5”.
